{
  "source": "patent US20210315817A1",
  "about": "“C[…] SELF-EMULSION SYSTEMS FOR INFUSED COMPOSITIONS” (HEXO […]., priority 2018, published 2021)",
  "origin": "cited, not measured here",
  "details": "individual emulsifier HLB value",
  "data": [
    {"substance": "polyoxyethylene sorbitan monolaurate [Tween ® 20]", "values": [
      {"measurement": "Emuls. HLB", "result": 16.7}
    ]}
  ]
}
